Results on 27 compounds are retold here after patent publication US10894788B2, “Inhibitors of cyclin-dependent kinases” (Kinnate Biopharma Inc., priority 2018, dated 2021).

The structures appear in SMILES notation.

Sequence of CDK12 (Q9NYV4 whole entry): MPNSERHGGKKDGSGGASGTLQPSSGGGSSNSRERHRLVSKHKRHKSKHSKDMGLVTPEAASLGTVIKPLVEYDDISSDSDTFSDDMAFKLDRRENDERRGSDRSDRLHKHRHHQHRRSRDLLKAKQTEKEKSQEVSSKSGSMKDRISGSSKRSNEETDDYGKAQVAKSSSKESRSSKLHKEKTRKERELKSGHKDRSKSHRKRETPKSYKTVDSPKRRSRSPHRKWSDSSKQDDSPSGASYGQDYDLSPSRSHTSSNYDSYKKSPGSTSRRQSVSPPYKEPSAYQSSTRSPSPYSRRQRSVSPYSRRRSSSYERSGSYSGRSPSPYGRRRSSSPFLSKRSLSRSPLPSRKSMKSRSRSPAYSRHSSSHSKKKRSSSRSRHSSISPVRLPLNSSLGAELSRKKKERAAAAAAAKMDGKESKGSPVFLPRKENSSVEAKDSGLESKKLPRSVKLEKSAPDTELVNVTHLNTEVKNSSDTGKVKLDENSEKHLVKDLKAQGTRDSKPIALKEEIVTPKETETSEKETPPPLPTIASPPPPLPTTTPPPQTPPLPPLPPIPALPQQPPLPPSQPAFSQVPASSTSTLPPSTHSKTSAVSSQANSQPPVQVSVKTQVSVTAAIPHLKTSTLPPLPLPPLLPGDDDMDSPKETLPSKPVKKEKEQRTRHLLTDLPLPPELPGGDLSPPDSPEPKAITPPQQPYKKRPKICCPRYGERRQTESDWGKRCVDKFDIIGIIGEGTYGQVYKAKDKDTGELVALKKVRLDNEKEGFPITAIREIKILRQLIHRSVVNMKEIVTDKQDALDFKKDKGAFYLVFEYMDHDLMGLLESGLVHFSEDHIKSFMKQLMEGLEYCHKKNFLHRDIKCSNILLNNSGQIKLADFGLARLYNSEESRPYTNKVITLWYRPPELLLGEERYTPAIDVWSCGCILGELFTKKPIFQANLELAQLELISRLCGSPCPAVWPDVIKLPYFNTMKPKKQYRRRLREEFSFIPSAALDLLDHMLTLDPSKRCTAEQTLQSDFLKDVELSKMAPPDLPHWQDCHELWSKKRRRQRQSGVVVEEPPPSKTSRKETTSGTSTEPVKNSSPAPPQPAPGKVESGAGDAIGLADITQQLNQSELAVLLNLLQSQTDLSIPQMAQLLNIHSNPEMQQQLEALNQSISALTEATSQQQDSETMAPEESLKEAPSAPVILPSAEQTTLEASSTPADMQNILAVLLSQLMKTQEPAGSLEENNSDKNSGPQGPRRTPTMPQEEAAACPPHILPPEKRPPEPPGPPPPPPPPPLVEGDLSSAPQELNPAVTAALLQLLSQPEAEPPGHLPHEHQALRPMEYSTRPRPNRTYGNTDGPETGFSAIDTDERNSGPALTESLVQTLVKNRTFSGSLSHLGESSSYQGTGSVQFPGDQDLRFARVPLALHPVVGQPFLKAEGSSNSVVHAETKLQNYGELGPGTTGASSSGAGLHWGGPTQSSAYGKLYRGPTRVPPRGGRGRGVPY
Sequence of CDK12 (O75909 whole entry partner): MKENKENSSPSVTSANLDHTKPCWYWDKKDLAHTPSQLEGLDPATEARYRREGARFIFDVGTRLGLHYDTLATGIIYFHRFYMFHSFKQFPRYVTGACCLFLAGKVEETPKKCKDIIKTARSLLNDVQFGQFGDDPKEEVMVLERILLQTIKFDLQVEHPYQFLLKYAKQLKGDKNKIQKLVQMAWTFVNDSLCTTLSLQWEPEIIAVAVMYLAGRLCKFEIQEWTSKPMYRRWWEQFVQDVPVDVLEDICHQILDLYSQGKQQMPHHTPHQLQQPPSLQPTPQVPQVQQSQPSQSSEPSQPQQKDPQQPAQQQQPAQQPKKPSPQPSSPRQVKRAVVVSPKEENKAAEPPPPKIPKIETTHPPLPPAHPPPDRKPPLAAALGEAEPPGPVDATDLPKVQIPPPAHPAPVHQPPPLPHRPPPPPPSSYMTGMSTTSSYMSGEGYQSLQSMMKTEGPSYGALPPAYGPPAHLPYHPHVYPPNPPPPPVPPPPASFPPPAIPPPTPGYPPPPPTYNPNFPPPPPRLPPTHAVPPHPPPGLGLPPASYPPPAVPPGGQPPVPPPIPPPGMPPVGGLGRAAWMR

The assay deals with CDK12 (Homo sapiens (Human), UniProt Q9NYV4). In words: Radiometric protein kinase assay (33PanQinase Activity Assay), Assay Condition B (thiol-free conditions). It is filed as biochemical. As to conditions: thiol-free conditions (1 mM TCEP, glutathione removed). The protocol:
Example 2—Assay Condition B (Thiol-Free Conditions)
The IC50 profile of compounds was determined using one protein kinase in a customized, thiol free assay. […] Prior to testing, the 1×10^−03 M stock solutions in column 2 of the master plates were subjected to a serial, semi-logarithmic dilution using 100% DMSO as a solvent. […] Column 1 and 7 were filled with 100% DMSO as controls. Subsequently, 2×10 microliter from each well of the serial diluted copy plates were aliquoted with a 96 channel pipettor into two identical sets of “compound dilution plates”. All plates were barcoded for automated identification and tracking purposes. […] All compounds were stored as powder until being solubilized in DMSO. Solubilized compounds were stored as 1×10^−02 M/100% DMSO stock solutions. Prior to the assay process, 90 microliters of H2O were added to each well of a set of compound dilution plates. To minimize potential precipitation, the H2O was added to each plate only a few minutes before the transfer of the compound solutions into the assay plates. Each plate was shaken thoroughly, resulting in compound dilution plates with a final of 10% DMSO. For each assay, 5 microliters of solution from each well of the compound dilution plates/10% DMSO were transferred into the assay plate. The final volume of the assay was 50 μl. All compounds were tested at 10 final assay concentrations in the range from 1×10^−05 M to 3×10^−10 M, in singlicate. The final DMSO concentration in the reaction cocktails was 1% in all cases. A radiometric protein kinase assay (33PanQinase® Activity Assay) was used for measuring the kinase activity of the protein kinase. All kinase assays were performed in 96-well FlashPlates™ from PerkinElmer (Boston, Mass., USA) in a 50 microliter reaction volume. The reaction cocktail was pipetted in four steps in the following order: 20 microliter of assay buffer (standard buffer)·5 microliter of ATP solution (in H2O)·5 microliter of test compound (in 10% DMSO)·20 microliter enzyme/substrate mix. […] For all experiments labeled as “Thiol-free”, all glutathione was exchanged from protein preparations so as to be removed from the assay and final buffer conditions contained no thiol-containing reagents. This was done so there would be no interference with the key cysteines in the proteins of interest.
For data analysis, the median value of the counts in column 1 (n=8) of each assay plate was defined as “low control”. This value reflects unspecific binding of radioactivity to the plate in the absence of a protein kinase but in the presence of the substrate. The median value of the counts in column 7 of each assay plate (n=8) was taken as the “high control”, i.e. full activity in the absence of any inhibitor. The difference between high and low control was taken as 100% activity. As part of the data evaluation the low control value from a particular plate was subtracted from the high control value as well as from all 80 “compound values” of the corresponding plate. The residual activity (in %) for each well of a particular plate was calculated by using the following formula: Res. Activity (%)=100×[(cpm of compound−low control)/(high control−low control)]
The residual activities for each concentration and the compound IC50 values were calculated using Quattro Workflow V3.1.1 (Quattro Research GmbH, Munich, Germany; www.quattro-research.com). […] The fitting method used was a least-squares fit. As a parameter for assay quality, the Z′-factor (Zhang et al., J. Biomol. Screen. 2: 67-73, 1999) for the low and high controls of each assay plate (n=8) was used. ProQinase's criterion for repetition of an assay plate is a Z′-factor below 0.4 (Iversen et al., J. Biomol. Screen. 3: 247-252, 2006).
Regarding `C=CC(=O)Nc1ccc(C(=O)N2CC[C@@H](Nc3ncc(Cl)c(OC4CC4)n3)C2)cc1` [Example 21, (R)—N-(4-(3-((5-chloro-4-cyclopropoxypyrimidin-2-yl)amino)pyrrolidine-1-carbonyl)phenyl)acrylamide], the IC50 is < 100 nM.

On to `C=CC(=O)N1CCc2cc(C(=O)N3CC[C@@H](Nc4ncc(Cl)c(OC)n4)C3)ccc21` [Example 27, (R)-1-(5-(3-((5-chloro-4-methoxypyrimidin-2-yl)amino)pyrrolidine-1-carbonyl)indolin-1-yl)prop-2-en-1-one], for which the concentration for half-maximal inhibition (IC50) was < 100 nM.

For `C=CC(=O)Nc1ncc(C(=O)N2CC[C@@H](Nc3ncc(Cl)c(OC)n3)C2)s1` [Example 8, (R)—N-(5-(3-((5-chloro-4-methoxypyrimidin-2-yl)amino)pyrrolidine-1-carbonyl)thiazol-2-yl)acrylamide], the IC50 is 100 to 1000 nM.

`C=CC(=O)Nc1ccc(C(=O)N2CC[C@@H](Nc3nccc(-c4cn[nH]c4)n3)C2)cc1` [Example 44, (R)—N-(4-(3-((4-(1H-pyrazol-4-yl)pyrimidin-2-yl)amino)pyrrolidine-1-carbonyl)phenyl)acrylamide]: the IC50 lay in the range of 100 to 1000 nM.

As to `C=CC(=O)Nc1ccc(C(=O)N2CC[C@@H](Nc3ncc(Cl)c(OC)n3)C2)cc1N1CCN(C)CC1` [Example 78, (R)—N-(4-(3-((5-chloro-4-methoxypyrimidin-2-yl)amino)pyrrolidine-1-carbonyl)-2-(4-methylpiperazin-1-yl)phenyl)acrylamide], the IC50 was < 100 nM.

On to `C=CC(=O)Nc1ccc(C(=O)N2CCC[C@@H](Nc3nccc(-c4ccnn4C)n3)C2)cc1` [Example 35, (R)—N-(4-(3-((4-(1-methyl-1H-pyrazol-5-yl)pyrimidin-2-yl)amino)piperidine-1-carbonyl)phenyl)acrylamide], for which the IC50 was in the range of 30000 to 100000 nM.

`C=CC(=O)Nc1ccc(C(=O)N2CC[C@@H](Nc3ncc(Br)cn3)C2)cc1C` [Example 76, (R)—N-(4-(3-((5-bromopyrimidin-2-yl)amino)pyrrolidine-1-carbonyl)-2-methylphenyl)acrylamide]: the IC50 is < 100 nM.

`CCC(=O)Nc1ccc(C(=O)N2CC[C@@H](Nc3ncc(C)c(OC4CC4)n3)C2)cc1` [Example 16, (R)—N-(4-(3-((4-cyclopropoxy-5-methylpyrimidin-2-yl)amino)pyrrolidine-1-carbonyl)phenyl)propionamide]: the IC50 was in the range of 1000 to 10000 nM.

With `C=CC(=O)Nc1ccc(C(=O)N2CC[C@@H](Nc3ncc(Cl)c(OC)n3)C2)cc1OC` [Example 1, (R)-N-(4-(3-((5-chloro-4-methoxypyrimidin-2-yl)amino)pyrrolidine-1-carbonyl)-2-methoxyphenyl)acrylamide], the IC50 is < 100 nM.

For `CCC(=O)Nc1ccc(C(=O)N2CC[C@@H](Nc3nccc(-c4cn[nH]c4)n3)C2)cc1` [Example 43], the IC50 is 1000 to 10000 nM.

Regarding `C=CC(=O)Nc1ccc(C(=O)N2CCC[C@@H](Nc3nccc(OC)n3)C2)cc1` [Example 37, (R)—N-(4-(3-((4-methoxypyrimidin-2-yl)amino)piperidine-1-carbonyl)phenyl)acrylamide], the IC50 was 1000 to 10000 nM.

Consider `C=CC(=O)Nc1ccc(C(=O)N2CC[C@@H](Nc3ncc(Cl)c(OC4CC4)n3)C2)cc1` [Example 56, (R)—N-(4-(3-((5-chloro-4-cyclopropoxypyrimidin-2-yl)amino)pyrrolidine-1-carbonyl)phenyl)acrylamide], for which the IC50 is < 100 nM.

On to `C=CC(=O)Nc1ccc(C(=O)N2CC[C@@H](Nc3ccc(Cl)cn3)C2)cc1` [Example 64, (R)—N-(4-(3-((5-chloropyridin-2-yl)amino)pyrrolidine-1-carbonyl)phenyl)acrylamide], for which the IC50 fell in the range of 100 to 1000 nM.

For the compound `C=CS(=O)(=O)Nc1ccc(C(=O)N2CC[C@@H](Nc3ncc(Cl)cn3)C2)cc1` [Example 84, (R)—N-(4-(3-((5-chloropyrimidin-2-yl)amino)pyrrolidine-1-carbonyl)phenyl)ethenesulfonamide], the IC50 fell in the range of 100 to 1000 nM.

Turning to `C#Cc1cnc(N[C@@H]2CCN(C(=O)c3ccc(N(C)C(=O)C=C)cc3)C2)nc1` [Example 113, (R)—N-(4-(3-((5-ethynylpyrimidin-2-yl)amino)pyrrolidine-1-carbonyl)phenyl)-N-methylacrylamide], the IC50 lay in the range of 100 to 1000 nM.

For the compound `C=CC(=O)Nc1ccc(C(=O)N2CC[C@@H](Nc3ncc(C)c(OC4CC4)n3)C2)cc1` [Example 22, (R)—N-(4-(3-((4-cyclopropoxy-5-methylpyrimidin-2-yl)amino)pyrrolidine-1-carbonyl)phenyl)acrylamide], the IC50 fell in the range of 100 to 1000 nM.

In the case of `C=CC(=O)N1CCOc2cc(C(=O)N3CC[C@@H](Nc4ncc(Cl)cn4)C3)ccc21` [Example 34, (R)-1-(7-(3-((5-chloropyrimidin-2-yl)amino)pyrrolidine-1-carbonyl)-2H-benzo[b][1,4]oxazin-4(3H)-yl)prop-2-en-1-one], the IC50 lay within 100 to 1000 nM.

Compound `C=CC(=O)Nc1ccc(C(=O)N2CC[C@@H](Nc3nccc(OC4CCCC4)n3)C2)cc1` (stereo in doubt) [Example 45, N-{4-[3-(4-Cyclopentyloxy-pyrimidin-2-ylamino)-pyrrolidine-1-carbonyl]-phenyl}-acrylamide] showed an IC50 of 100 to 1000 nM.

Consider `C=CC(=O)Nc1ccc(C(=O)N2CCC[C@@H](Nc3nccc(-c4cnn(C)c4)n3)C2)cc1` [Example 39, (R)—N-(4-(3-((4-(1-methyl-1H-pyrazol-4-yl)pyrimidin-2-yl)amino)piperidine-1-carbonyl)phenyl)acrylamide], for which the IC50 fell in the range of 30000 to 100000 nM.

As for `C=CC(=O)N1CCCc2cc(C(=O)N3CC[C@@H](Nc4ncc(Cl)c(OC)n4)C3)ccc21` [Example 65, (R)-1-(6-(3-((5-chloro-4-methoxypyrimidin-2-yl)amino)pyrrolidine-1-carbonyl)-3,4-dihydroquinolin-1(2H)-yl)prop-2-en-1-one], the IC50 was < 100 nM.

The compound `C=CC(=O)Nc1ccc(C(=O)N2CC[C@@H](Nc3ccc(C4CC4)cn3)C2)cc1` [Example 85, (R)—N-(4-(3-((5-cyclopropylpyridin-2-yl)amino)pyrrolidine-1-carbonyl)phenyl)acrylamide] had an IC50 of 100 to 1000 nM.

With `C=CC(=O)Nc1ccc(C(=O)N2CC[C@@H](Nc3ncc(Cl)c(OC)n3)C2)cc1N1CCOCC1` [Example 10, (R)—N-(4-(3-((5-chloro-4-methoxypyrimidin-2-yl)amino)pyrrolidine-1-carbonyl)-2-morpholinophenyl)acrylamide], the IC50 was < 100 nM.

Compound `C=CC(=O)Nc1ccc(C(=O)N2CC[C@@H](Nc3ncc(F)c(OC4CC4)n3)C2)cc1` [Example 23, (R)—N-(4-(3-((4-cyclopropoxy-5-fluoropyrimidin-2-yl)amino)pyrrolidine-1-carbonyl)phenyl)acrylamide] registered an IC50 of 100 to 1000 nM.

In turn, `C=CC(=O)Nc1ncc(C(=O)N2CC[C@@H](Nc3ncc(Cl)c(OC)n3)C2)s1` [Example 73, (R)—N-(5-(3-((5-chloro-4-methoxypyrimidin-2-yl)amino)pyrrolidine-1-carbonyl)thiazol-2-yl)acrylamide] gave an IC50 of 100 to 1000 nM.

For the compound `CCC(=O)Nc1ccc(C(=O)N2CC[C@@H](Nc3ncc(F)c(OC4CC4)n3)C2)cc1` [Example 13, (R)—N-(4-(3-((4-cyclopropoxy-5-fluoropyrimidin-2-yl)amino)pyrrolidine-1-carbonyl)phenyl)propionamide], the IC50 is 1000 to 10000 nM.

With `C=CC(=O)Nc1ccc(C(=O)N2CC[C@@H](Nc3nccc(Oc4cnn(C)c4)n3)C2)cc1` (stereo in doubt) [Example 46, N-(4-{3-[4-(1-Methyl-1H-pyrazol-4-yloxy)-pyrimidin-2-ylamino]-pyrrolidine-1-carbonyl}-phenyl)-acrylamide], the IC50 fell in the range of 1000 to 10000 nM.

Compound `C=CC(=O)Nc1ccc(C(=O)N2CC[C@@H](Nc3ncc(Cl)c(OC)n3)C2)cc1-c1cnn(C)c1` [Example 4, (R)-N-(4-(3-((5-chloro-4-methoxypyrimidin-2-yl)amino)pyrrolidine-1-carbonyl)-2-(1-methyl-1H-pyrazol-4-yl)phenyl)acrylamide] registered an IC50 of 100 to 1000 nM.

The term IC50 denotes the midpoint of a concentration-inhibition curve. A high value points to lower potency.
